{"source": "paper PMC8287724", "about": "“Reducing Auditory Nerve Excitability by Acute Antagonism of Ca^2+-Permeable AMPA Receptors” (Frontiers in Synaptic Neuroscience, 2021)", "tested_on": "distortion product otoacoustic emissions (DPOAE)", "test": "Distortion product otoacoustic emissions after systemic delivery", "format": "in vivo, guinea pig", "conditions": "IP 13.5 mg/kg", "procedure": "As described for local delivery, cochlear output was measured similarly for systemic delivery of IEM-1460 and IEM-1925. Complete details have been previously published (Salt et al., [2013]). Briefly, acoustic tone bursts were applied in a closed sound system. The plastic extension tube of the acoustic assembly (Etymotic Research, ER-10 C) was coupled to the end of the hollow ear bar with the tube tip positioned ~1.5 mm from the tympanic membrane. Stimulus generation and data collection were performed with Tucker Davis System 3 hardware controlled by a custom written program (Microsoft Visual Basic). Stimulus waveforms were routed through a programmable Tucker Davis PA5 attenuator and HB7 headphone amplifier. Stimuli were calibrated from 0.125 to 26 kHz in 1/4 octave steps. A CAP audiogram was obtained at the beginning and end of the experiment. Up to 60 min of baseline audiometric data were obtained prior to drug delivery. Data with baseline changes >20% were excluded. A 13-level tone probe series, at selected frequencies, was repeated at 2-min intervals. Distortion product otoacoustic emissions (DPOAEs) were measured using an ER10C probe system. The two primary tone frequencies were set at 6 kHz (f1) and 7.4 kHz (f2), for a f2/f1-ratio of 1.23, with levels of 65 dB SPL (L1) and 55 dB SPL (L2). […]", "data": [{"compound": "C[N+](C)(C)CCCCCNCC12CC3CC(CC(C3)C1)C2", "note": "[IEM-1460]", "values": [{"measurement": "effect on distortion product otoacoustic emissions (DPOAEs)", "value": "unaffected"}]}]}
